{"source": "patent US20080166805A1", "about": "“Culturing human cells and tissues in an N-glycolylneuraminic acid-free environment” (The Regents of the University of California, priority 2005, published 2008)", "format_in_all_cases": "cell-based", "key": {"[1]": {"tested_on": "lysosomal sialic acid transporter mutant human fibroblasts (GM05520)", "experiment": "Neu5Gc/ManNGc feeding, lysosomal sialic acid transporter mutant fibroblasts GM05520", "conditions": "GM05520 (ISSD) fibroblasts fed 3 mM for 3 days", "source_text": "(§1) Cell Lines—Caco-2 cells (human epithelial cells isolated from a primary colon carcinoma), normal human skin fibroblasts (CCD-919-SK) and chinese hamster ovary (CHO-K1) cells were purchased from ATCC (Manassas, Va.) Mutant human skin fibroblasts (GM05520, GM08496 and GM01718) were obtained from the Coriell Institute for Medical Research (Camden, N.J.) Chimpanzee Fred and human […] EBV-transformed lymphoblasts were a gift from Dr. Peter Parham, Stanford University, CA. […]\n(§2) Fractionation of the Labeled Cells—Washed cell pellets were sonicated into 500 μL of 20 mM sodium phosphate buffer or 20 mM Tris-HCl, pH 7.5, using 4×15 second pulses of a sonicator cell disrupter, model Some Dismembrator (Fisher Scientific, Hampton, N.J.) at a probe setting of 3. […] The pellet contained <5% of the incorporated sialic acid as determined using a radioactive tracer (data not shown.) The supernatant was therefore considered as the “total homogenate” fraction. A portion (20%) of the “total homogenate” fraction was taken for protein quantification and Sia analysis by DMB derivatization and HPLC analysis (as discussed below.) The remainder was centrifuged at 100,000×g for 1 h. […] All the Sias in these fractions were released with mild acid hydrolysis if necessary and then analyzed by HPLC after DMB derivatization. […]"}, "[2]": {"tested_on": "normal human skin fibroblasts (WT)", "experiment": "Neu5Gc/ManNGc feeding experiment, normal human skin fibroblasts", "conditions": "normal wild-type (WT) fibroblasts fed 3 mM for 3 days", "method": "Cell Culture—Caco-2 cells were propagated in alpha-MEM containing GLUTAMAX™ (Invitrogen, San Diego, Calif.) and a mixture of ribonucleosides and deoxyribonucleosides (Gibco/Invitrogen, San Diego, Calif.) supplemented with 20% FCS. All the fibroblast cell lines and CHO-K1 cells were cultured in the same media supplemented respectively with 15% non-heat inactivated FCS or 10% heat inactivated FCS. Chimpanzee Fred and human […] EBV-transformed lymphoblasts were cultured in RPMI-1640 (Gibco/Invitrogen, San Diego, Calif.) supplemented with 10% heat inactivated FCS or 15% human serum. All of the cultures were maintained at 37° C., 5% CO2 atmosphere. In order to deplete any remaining Neu5Gc from FCS, the cells were split and cultured prior to Neu5Gc feeding experiments for at least 4 days in alpha-MEM supplemented with an adequate percentage of heat-inactivated premium human serum instead of FCS. The cells were then maintained under the same conditions during the whole feeding experiment. The human serum was heat inactivated at 56° C. for 30 min. before use.\nNeu5Gc and ManNGc Feeding Experiment—Neu5Ac, Neu5Gc or ManNGc were dried, dissolved in the appropriate media supplemented with heat-inactivated human serum, sterilized using a Spin-X® (Corning Inc., Corning, N.Y.) and then added to the cells. The pH of the media containing Sia was adjusted to neutrality using sterilized 1M NaOH before starting the feeding experiment. Cells were cultured in the presence of up to 3 mM free Sia or ManNGc for 1 or 3 days at 37° C. At the end of the feeding, cells were washed with cold PBS, harvested either by scraping or with 2 mM EDTA for fibroblasts, and washed again with cold PBS prior to fractionation.\nFractionation of the Labeled Cells—Washed cell pellets were sonicated into 500 μL of 20 mM sodium phosphate buffer or 20 mM Tris-HCl, pH 7.5, using 4×15 second pulses of a sonicator cell disrupter, model Some Dismembrator (Fisher Scientific, Hampton, N.J.) at a probe setting of 3. The sonicate was centrifuged at 75×g for 15 min., and the pellet obtained consisted primarily of nuclei and unbroken cells. The pellet contained <5% of the incorporated sialic acid as determined using a radioactive tracer (data not shown.) The supernatant was therefore considered as the “total homogenate” fraction. A portion (20%) of the “total homogenate” fraction was taken for protein quantification and Sia analysis by DMB derivatization and HPLC analysis (as discussed below.) The remainder was centrifuged at 100,000×g for 1 h. The resulting pellet, called the “membrane” fraction, was then resuspended by sonication (15 sec.) in 200 μl of sodium acetate buffer, pH 5.5. The 100,000×g supernatant, called the “soluble” fraction was adjusted to 90% ethanol using absolute ice-cold ethanol, and placed overnight at −20° C. The flocculant precipitate, which represents the “soluble protein” fraction, was washed 3 times with 90% ice-cold ethanol and then resuspended in 200 μl of water. […] All the Sias in these fractions were released with mild acid hydrolysis if necessary and then analyzed by HPLC after DMB derivatization. Protein quantification was performed on the total homogenate, membrane and soluble protein fractions by using the BCA protein assay kit from Pierce (Rockford, Ill.) In some experiments, the resulting data obtained for the Sia bound to the membrane fraction and to the soluble proteins were pooled and presented here as a High Molecular Weight (HMW) fraction. […]"}, "[3]": {"tested_on": "lysosomal sialic acid transporter mutant human fibroblasts (GM08496)", "experiment": "Neu5Gc/ManNGc feeding, lysosomal sialic acid transporter mutant fibroblasts GM08496", "conditions": "GM08496 (Salla disease) fibroblasts fed 3 mM for 3 days", "source_text": "as §1, §2"}}, "data": [{"molecule": "O=C(CO)N[C@@H]1C(O)O[C@H](CO)[C@@H](O)[C@@H]1O", "note": "(stereo partly drawn) [ManNGc, N-glycolylmannosamine]", "values": [{"measurement": "percent of Neu5Gc in membrane-bound glycoconjugates", "setting": "[1]", "result": 18, "unit": "%"}, {"measurement": "percent of Neu5Gc incorporation into membrane-bound glycoconjugates", "setting": "[2]", "result": 19, "unit": "%"}, {"measurement": "percent of Neu5Gc in membrane-bound glycoconjugates", "setting": "[3]", "result": 17, "unit": "%"}]}]}
